The values below come from PMC5762913, “Probing the molecular basis of hERG drug block with unnatural amino acids” (Scientific Reports, 2018).

In one series the test system is hERG S631A. The conditions noted are these: S631A mutation which abolishes inactivation, versus WT; cited from earlier work.
The test system of a further series is hERG Tyr652 and Phe656. The series is described as follows: Assessment of cation-π interaction in hERG drug block across fluorinated Phe series. Conditions: judged from IC50 across Y652 and F656 fluorinated Phe series. In general terms: hERG is a cardiac potassium channel; its block is linked to QT prolongation.
Series [1] concerns nicotinic receptor α-subunit Trp-149 doubly fluorinated. Set-up: method as in PMID 9770444. Conditions: doubly fluorinating Trp-149 in the α-subunit; cited from earlier work.

Each structure is given as a SMILES string.

Source text for hERG Tyr652 and Phe656: Testing whether a cation-π relationship occurs at an aromatic residue can be accomplished by measuring the impact of substitution with a series of fluorinated aromatic amino acids. Successive fluorinations of aromatic side chains yield additive reductions in ability to donate π electrons to cation-π interactions[30]. Through the use of nonsense suppression, we incorporated singly and doubly fluorinated phenylalanine derivatives at both Tyr652 and Phe656. These UAA also have the advantage of providing a sterically conservative means of studying the specific nature of interactions of individual residues. If hERG drug interactions depend largely on cation-π binding interactions at sites Tyr652 and Phe656, then successive fluorinations at these sites should decrease drug affinity in a linear manner[30].
This protocol is repeated in successive sweeps as either control or drug-containing solutions flow into the bath chamber and over the oocyte. […] The steady state current at −50 mV reached at each drug concentration was normalized to the steady state current at −50 mV with no drug. From these normalized values, a concentration-response curve was generated and fit with a Hill equation. IC50 and Hill coefficient values were generated from each Hill fit. […]

For the compound `CN(CCOc1ccc(NS(C)(=O)=O)cc1)CCc1ccc(NS(C)(=O)=O)cc1` [Dofetilide, dofetilide], the potency of block entry in the series on hERG S631A is on record as “reduced”. Besides, the “Cation – π behaviour?” value with hERG Tyr652 and Phe656 is “No”.
`C=C[C@H]1C[N@@]2CC[C@H]1C[C@@H]2[C@@H](O)c1ccnc2ccc(OC)cc12` [Quinidine, quinidine]: the potency of block entry in the series on hERG S631A is given as “reduced”. In the series on hERG Tyr652 and Phe656, the “Cation – π behaviour?” value was “No”.
Take `CC(=O)OCC[N+](C)(C)C` [acetyl choline]: in series [1], the reduction of potency entry was “nearly an order of magnitude”.
